# Measurements: article PMC7381750, “JP1 suppresses proliferation and metastasis of melanoma through MEK1/2 mediated NEDD4L-SP1-Integrin αvβ3 signaling” (Theranostics, 2020)
# “And” between values parts separate entries of the source, which are not always exact repeats. Identical values can stand only once. “Also recorded” adds a separate entry of the source. Non-standard residues stand in square brackets, D forms with d. Residues, ends and D or L forms follow the SMILES beside them. pS = N[C@@H](COP(=O)(O)O)C(=O)O
# Tests used:
# [1] = Cynomolgus monkey toxicity test: immunotoxicity; assay type: in vivo
# Method: (§1) The test was completed by Suzhou Xishan Zhongke Drugs Research and Development Co., Ltd. (Xishan, Suzhou, China). The study proposal was approved by the Institute Animal Care and Use Committee (IACUC, ID19012912). Cynomolgus monkeys (3-4 years old) were randomly divided into three groups (n = 4 per group, half male and female); and the monkeys were treated with solvent control (Mannitol in saline, 75 mg/kg/d), JP1 (45 mg/kg/day) and JP1 (150 mg/kg/day) for 14 days. The experiment was ended on 15th day and the animals were euthanasia. The relevant clinical parameters were determined on 7th and 13th day, respectively. The observed parameters were including clinical symptoms, weight, food intake, body temperature, ophthalmology, electrocardiogram, blood routine examination, blood biochemistry, blood coagulation, urinalysis, immunotoxicity.
# (§2) Supplementary database files: Cynomolgus monkey toxicity test […]
# (§3) The study was conducted by a contract service in Suzhou Xishan Zhongke Drugs Research and Development Co., Ltd. (Xishan, Suzhou, China). All the use of animals were approved by the Institute Animal Care and Use Commttee, IACUC. IACUC no. :
# (§4) ID19012912. The veterinarian will supervise the breeding and welfare of the animals. The company follows the Guide for the Care and Use of Laboratory Animals (8th ed., 2011).
# (§5) Cynomolgus monkeys (3-4 years old) were randomly divided into three groups (n = 4 per group, two males and two females for each group); and treated q.d./i.v. with Mannitol (75 mg/kg/d in saline), JP1 (45 mg/kg/d) and JP1 (150 mg/kg/d) for 14 days, respectively. JP1 was dissolved in saline (100 mg/2 ml) and administered intravenously at a rate of 3 ml/min.
# (§6) The JP1 was provided by Hybio Pharmaceutical Co., Ltd. (Shenzhen, China); the production of small packaging preparation (100 mg/vial in freeze-dried powder, purity > 98%; -20 °C for storage and transportation) was completed under strict GMP conditions and quality control procedures for biological preparations. No recovery period was set for this test; the experimental model was ended on 15th day. The relevant clinical indicators including symptoms, body weight, food intake, temperature, ophthalmology, electrocardiogram, blood routine examination, blood biochemistry, blood coagulation, urinalysis, immunotoxicity were determined on 7th and 13th, respectively. […]
# (§7) indicators in all animals, and the pathological observation of organs was not determined. […]
# (§8) relevant clinical indicators in two JP1 groups were no difference compared with those in […]
# (§9) Level (NOAEL) of JP1 was 150 mg/kg.
# in vivo = details: male, Sprague-Dawley, rat, ip, 100 mg/kg, half-life (t1/2)
# Method: (§10) The drug half-life (t1/2) is calculated by the formula t1/2 = 0.693/k, where k is the elimination rate constant (k = (Inc1-Inc2)/(t2-t1)).
# [2] = Cynomolgus monkey toxicity test: urinalysis; assay type: in vivo
# Method: as §1, §2, §3, §4, §5, §6, §7, §8, §9
# [3] = Cynomolgus monkey toxicity test: blood coagulation; assay type: in vivo
# Method: as §1, §2, §3, §4, §5, §6, §7, §8, §9
# [4] = Preliminary pharmacokinetic analysis in SD rats
# Method: as §10
# [5] = Cynomolgus monkey toxicity test: body weight; assay type: in vivo
# Method: as §1, §2, §3, §4, §5
# The JP1 was provided by Hybio Pharmaceutical Co., Ltd. (Shenzhen, China); the production of small packaging preparation (100 mg/vial in freeze-dried powder, purity > 98%; -20 °C for storage and transportation) was completed under strict GMP conditions and quality control procedures for biological preparations. No recovery period was set for this test; the experimental model was ended on 15th day. […]
# as §8, §9
# B16F10 cell = assay: B16F10 melanoma-bearing model, JP1 and DTIC alone or in combination; assay type: in vivo, mouse; details: 50 mg/kg JP1 combined with 40 mg/kg DTIC
# Method: (A-C) (A) Schematic representation of the B16F10 and MEWO cells melanoma-bearing model for JP1 treatment (n = 6 per group). JP1 and its control agents were administered by intraperitoneal injection. […] (D-G) (D) Schematic representation of the B16F10 cell melanoma passive metastasis model for JP1 treatment. JP1 and its control agents were administered by intraperitoneal injection. […] (F) The representative melanoma lung metastatic images by H&E-staining (scale bars, 1000 μm). […] (J-L) (J) Schematic representation of the B16F10 cell melanoma-bearing model (n= 6 per group). Both JP1 and DTIC alone or in combination treatments and relative control was administered by intraperitoneal injection in mice.
# The chemotherapeutic agent dacarbazine (DTIC) is currently as the first line drug used to treat metastatic melanoma in clinic, and was reported to cause painful symptoms and acquired resistance, compromising patient quality of life. To determine the possibility as a combination therapy between DTIC and JP1, we completed a joint treatment of DTIC and JP1 for melanoma tumor-bearing model (Figure 2J).
# LD50 in mouse = details: in vivo
# [6] = 14-day cynomolgus monkey toxicity test (overall); assay type: in vivo
# Method: as §1, with “The observed parameters were including clinical symptoms, weight, food intake, body temperature, ophthalmology, electrocardiogram, blood routine examination, blood biochemistry, blood coagulation, urinalysis, immunotoxicity.” left out
# as §6, with “No recovery period was set for this test; the experimental model was ended on 15th day.” left out
# as §7
# [7] = JP1 45 mg/kg/d i.v., D7, monkeys 1105,1106,2107,2108, 45 mg/kg/day
# [8] = JP1 45 mg/kg/d i.v., D13, monkeys 1105,1106,2107,2108, 45 mg/kg/day
# [9] = JP1 150 mg/kg/d i.v., D7, monkeys 1209,1210,2211,2212, 150 mg/kg/day
# [10] = JP1 150 mg/kg/d i.v., D13, monkeys 1209,1210,2211,2212, 150 mg/kg/day
# [11] = JP1 45 mg/kg/d i.v., D7, monkeys 1105,1106,2107,2108
# [12] = JP1 45 mg/kg/d i.v., D13, monkeys 1105,1106,2107,2108
# [13] = JP1 150 mg/kg/d i.v., D7, monkeys 1209,1210,2211,2212
# [14] = JP1 150 mg/kg/d i.v., D13, monkeys 1209,1210,2211,2212
# [15] = male, Sprague-Dawley, rat, blood, ip, 100 mg/kg
compound,measurement,setting,value
CC(=O)N[C@@H](Cc1ccccc1)C(=O)N1CCC[C@H]1C(=O)NCC(=O)N[C@@H](COP(=O)(O)O)C(=O)N[C@@H](CC(=O)O)C(=O)N[C@@H](CCCNC(=N)N)C(=O)N[C@@H](Cc1ccccc1)C(=O)NCC(=O)NCC(=O)NCC(=O)NCC(=O)N[C@@H](CCCNC(=N)N)C(=O)NCC(=O)N[C@@H](CC(=O)O)C(N)=O [JP1] (Ac-FPG[pS]DRFGGGGRGD-NH2),CD3+CD4+,[1]; [7],14.420% and 14.760% and 20.160% and 13.220%
same,CD3+CD8+,[1]; [7],27.140% and 25.500% and 32.040% and 35.620%
same,CD3+CD4+,[1]; [8],13.100% and 19.100% and 14.180% and 13.220%
same,CD3+CD8+,[1]; [8],41.820% and 43.140% and 47.160% and 31.220%
same,CD3+CD8+,[1]; [9],35.120% and 32.940% and 27.060% and 33.660%
same,CD3+CD4+,[1]; [10],24.420% and 20.280% and 28.260% and 22.580%
same,CD3+CD8+,[1]; [10],40.460% and 36.280% and 38.920% and 46.260%
same,half-life,in vivo,~1.32 h
same,GLU (urine),[2]; [11],NORMAL
same,URO (Urobilinogen),[2]; [11],NORMAL
same,COL (urine),[2]; [7],COLORLESS; also recorded: YELLOW
same,SG (Urine specific gravity),[2]; [7],1.004 and 1.005 and 1.008 and 1.012
same,pH (urine),[2]; [7],8.0 and 8.5
same,COL (urine),[2]; [12],COLORLESS
same,GLU (urine),[2]; [12],NORMAL
same,URO (Urobilinogen),[2]; [12],NORMAL
same,SG (Urine specific gravity),[2]; [8],1.006 and 1.007 and 1.009
same,pH (urine),[2]; [8],7.5 and 8.0 and 8.5
same,GLU (urine),[2]; [13],NORMAL
same,URO (Urobilinogen),[2]; [13],NORMAL
same,COL (urine),[2]; [9],LIGHT YELLOW; also recorded: COLORLESS
same,SG (Urine specific gravity),[2]; [9],1.002 and 1.009 and 1.020 and 1.006
same,pH (urine),[2]; [9],7.5 and 8.5
same,GLU (urine),[2]; [14],NORMAL
same,LEU (Urine leukocyte),[2]; [14],NEG.
same,URO (Urobilinogen),[2]; [14],NORMAL
same,COL (urine),[2]; [10],COLORLESS; also recorded: LIGHT YELLOW
same,SG (Urine specific gravity),[2]; [10],1.004 and 1.013 and 1.005 and 1.009
same,pH (urine),[2]; [10],8.0 and 8.5 and 7.5
same,APTT,[3]; [7],23.2 s and 28.0 s and 25.5 s and 25.1 s
same,FIB,[3]; [7],2.59 g/L and 2.84 g/L and 2.33 g/L and 2.34 g/L
same,PT,[3]; [7],11.8 s and 11.0 s and 12.2 s and 11.9 s
same,APTT,[3]; [8],25.3 s and 24.6 s and 24.2 s and 22.6 s
same,FIB,[3]; [8],3.02 g/L and 2.81 g/L and 2.68 g/L and 2.51 g/L
same,PT,[3]; [8],11.7 s and 12.2 s and 10.9 s
same,APTT,[3]; [9],23.7 s and 25.2 s and 33.8 s and 27.7 s
same,FIB,[3]; [9],2.71 g/L and 3.21 g/L and 2.66 g/L and 2.89 g/L
same,PT,[3]; [9],11.8 s and 12.5 s and 11.7 s and 12.0 s
same,APTT,[3]; [10],23.5 s and 24.9 s and 29.9 s and 27.8 s
same,FIB,[3]; [10],2.90 g/L and 2.99 g/L and 2.97 g/L and 3.27 g/L
same,PT,[3]; [10],11.9 s and 12.4 s and 11.8 s and 11.7 s
same,elimination rate constant k,"[4]; SD rats, 100 mg/kg i.p., from 0.25 h and 1 h concentrations",0.526
same,level at 0.25 h,[4]; [15],20500 ng/mL
same,level at 1 h,[4]; [15],13800 ng/mL
same,Body weight,[5]; [7],2.1 kg and 2.2 kg and 2.3 kg
same,Body weight,"[5]; JP1 45 mg/kg/d i.v., D14, monkeys 1105,1106,2107,2108, 45 mg/kg/day",2.5 kg and 2.4 kg
same,Body weight,[5]; [9],2.4 kg and 2.2 kg and 2.3 kg
same,Body weight,"[5]; JP1 150 mg/kg/d i.v., D14, monkeys 1209,1210,2211,2212, 150 mg/kg/day",2.2 kg and 2.3 kg and 2.6 kg
same,body weight curve,B16F10 cell,stable
same,liver injury,B16F10 cell; compared to DTIC alone,without obvious liver injury
same,LD50,LD50 in mouse,> 5000 mg/kg
same,"changes in detected parameters (clinical symptoms, weight, food intake, body temperature, ophthalmology, ECG, blood, urinalysis, immune-toxicity)","[6]; I.V. 45 or 150 mg/kg/day for 14 days, compared to control",no significant changes in all detected parameters
same,NOAEL at 14 days,"[6]; both sexes, in vivo, iv, 14 days, read-out: no observed adverse effect level (NOAEL)",150 mg/kg
